Literature values, collected in patent US20100221356A1, “PHARMACEUTICAL COMPOSITION FOR ONCE A DAY ADMINISTRATION OF TROSPIUM CHLORIDE” (SUPERNUS PHARMACEUTICALS, INC., priority 2003, published 2010).

Experiments:
[1] = 40 mg immediate release dose once daily compared to 20 mg given twice daily
[2] = water

In the case of `O=C(O[C@H]1C[C@H]2CC[C@@H](C1)[N+]21CCCC1)C(O)(c1ccccc1)c1ccccc1` [Trospium chloride], the “overall incidence of adverse events” value [1] is given as “higher overall incidence of adverse events”, the oral bioavailability (oral) is given as “approximately 10%” and the “oral bioavailability with the intake of high-fat food” value (oral, high-fat food) is given as “significantly reduced”. The “time to maximum blood level” value (orally administered) was 5 to 6 h and the saturation solubility [2] was 500 mg/mL.
